According to patent US20140018380A1, “BICYCLIC HETEROARYL COMPOUNDS AS GPR119 RECEPTOR AGONISTS” (CENTAURUS BIOPHARMA CO., LTD., priority 2011, published 2014):

These molecules were tested against T1, human GPR119 (Homo sapiens, UniProt Q8TDV5) (assay: cAMP assay (HTRF) with human GPR119 stable transfected CHO cells). Conditions: functional agonist activity; intracellular cAMP (HTRF) in human GPR119 stable transfected CHO cells, 30 min at 37° C.
T1 construct: host or cells: CHO cells (American Type Culture Collection)
T1 sequence (Q8TDV5 1-335): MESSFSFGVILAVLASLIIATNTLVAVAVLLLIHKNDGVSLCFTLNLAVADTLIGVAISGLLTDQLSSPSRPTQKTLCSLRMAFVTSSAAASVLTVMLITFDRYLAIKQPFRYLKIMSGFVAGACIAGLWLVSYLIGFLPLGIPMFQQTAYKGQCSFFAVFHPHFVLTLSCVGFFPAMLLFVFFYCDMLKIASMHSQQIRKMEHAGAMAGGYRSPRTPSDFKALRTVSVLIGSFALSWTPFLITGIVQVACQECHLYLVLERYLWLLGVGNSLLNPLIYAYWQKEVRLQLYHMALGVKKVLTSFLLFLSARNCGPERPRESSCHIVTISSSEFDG
Assay type: cell-based
Method: Testing of Compounds of the Invention In Vitro (cAMP Assay)
The functional agonist activities of compounds of the invention were characterized using a cAMP assay with human GPR119 stable transfected Chinese hamster ovary (CHO) cells (American Type Culture Collection, Manassas Va., USA). CHO cells were stable transfected with GPR119/pcDNA3.0 (SC307189, Origene). Transfected cells were then selected and maintained in culture media containing […] geneticin. Stable clones were obtained by limiting dilution and the expression of human-GPR119 in CHO cells was confirmed by HTRF (Homogeneous Time-Resolved Fluorescence) cAMP assay. The clones generating the best agonist stimulated signal window were selected for the cAMP assay development.
The cells were cultured in Dulbecco's Modified Eagle Medium (Invitrogen Corporation, Carlsbad, Calif., USA) containing 10% Fetal bovine serum, 1% Pen/Strep and […] G418 and grown in 75 cm2 tissue culture flasks until they reached 75-80% confluence.
The cells were harvested 16 hours prior to assay with 1 ml 0.05% Trypsine, washed with PBS and then plated into 96-well plates (8000 cells/well) containing DMEM medium and 10% BSA. Prior to assay, the cells were washed with assay stimulation buffer (HBSS containing 10 mM IBMX, 20 mM HEPES, 0.1% BSA) twice. Then cells were incubated for 30 min at 37° C. in the absence or presence of varying concentrations of agonists (i.e., the compounds of the present invention) in assay stimulating buffer with 0.1% DMSO. The intracellular levels of cAMP generated in the GPR119 transfected CHO cells were measured using the HTRF kit (CisBio, FR.). In brief, 20 ul d2-labeled cAMP and 20 ul cryptated labeled anti-cAMP antibody were added into 40 ul cells treated with agonist and the plates were incubated for 1 hour at room temperature in the dark. Cells were then transferred into white 96-well plate and the signal generated was measured using Envision (Perkin-Elmer, Norwalk, Conn.). EC50 values were calculated using the GraphPad Prism 5 program.

Row | EC50 [nM] | Structure (SMILES)
1 | < 300 | CCc1cnc(N2CCC(n3ccc4cc(-c5ccc(S(C)(=O)=O)cc5)ccc43)CC2)nc1 [Example 1, 1-(1-(5-ethylpyrimidin-2-yl)piperidin-4-yl)-5-(4-(methylsulfonyl)phenyl)-1H-indole]
2 | < 500 | CCc1cnc(N2CCC(n3nnc4cc(-c5ccc(-n6cnnn6)cc5)cnc43)CC2)nc1 [Example 2, 6-(4-(1H-tetrazol-1-yl)phenyl)-3-(1-(5-ethylpyrimidin-2-yl)piperidin-4-yl)-3H-[1,2,3]triazol o[4,5-b]pyridine]
3 | < 300 | CCc1cnc(N2CCC(n3ccc4cc(-c5ccc(-n6cnnn6)cc5)ccc43)CC2)nc1 [Example 3, 5-(4-(1H-tetrazol-1-yl)phenyl)-1-(1-(5-ethylpyrimidin-2-yl)piperidin-4-yl)-1H-indole]
4 | < 1000 | CCc1cnc(N2CCC(n3cc(C)c4cc(-c5ccc(S(C)(=O)=O)cc5)ccc43)CC2)nc1 [Example 5, 1-(1-(5-ethylpyrimidin-2-yl)piperidin-4-yl)-3-methyl-5-(4-(methylsulfone)phenyl)-1H-indole]
5 | < 100 | CCc1cnc(N2CCC(n3ccc4cc(-c5ccc(S(C)(=O)=O)cc5)c(F)cc43)CC2)nc1 [Example 6, 1-(1-(5-ethylpyrimidin-2-yl)piperidin-4-yl)-6-fluoro-5-(4-(methylsulfony)phenyl)-1H-indole]
6 | < 100 | CC(C)(C)OC(=O)N1CCC(n2ccc3cc(-c4ccc(S(C)(=O)=O)cc4)c(F)cc32)CC1 [Example 7, tert-butyl 4-(6-fluoro-5-(4-(methylsulfonyl)phenyl)-1H-indol-1-yl)piperidine-1-carboxylate]
7 | < 500 | CCc1cnc(N2CCC(n3cc(Cl)c4cc(-c5ccc(S(C)(=O)=O)cc5)ccc43)CC2)nc1 [Example 8, 3-chloro-1-(1-(5-ethylpyrimidin-2-yl)piperidin-4-yl)-5-(4-(methylsulfonl)phenyl)-1H-indole]
8 | < 200 | CCc1cnc(N2CCC(n3ccc4cc(-c5ccc(S(C)(=O)=O)cc5)ncc43)CC2)nc1 [Example 9, 1-(1-(5-ethylpyrimidin-2-yl)piperidin-4-yl)-5-(4-(methylsulfonyl)phenyl)-1H-pyrrolo[2,3-c]pyridine]
9 | < 200 | CC(C)(C)OC(=O)N1CCC(n2ccc3cc(-c4ccc(S(C)(=O)=O)cc4)ccc32)CC1 [Example 10, tert-butyl 4-(5-(4-(methylsulfonyl)phenyl)-1H-indol-1-yl)piperidine-1-carboxylate]
10 | < 500 | CCc1cnc(N2CCC(n3ccc4cc(-c5ccc(S(C)(=O)=O)cc5F)ccc43)CC2)nc1 [Example 11, 1-(1-(5-ethylpyrimidin-2-yl)piperidin-4-yl)-5-(2-fluoro-4-(methylsulfony)phenyl)-1H-indole]
11 | < 2000 | CCc1cnc(N2CCC(n3ccc4cc(-c5ccc(-n6cnnn6)cc5)c(F)cc43)CC2)nc1 [Example 12, 5-(4-(1H-tetrazol-1-yl)phenyl)-1-(1-(5-ethylpyrimidin-2-yl)piperidin-4-yl)-6-fluoro-1H-indole]
12 | < 500 | CCc1cnc(N2CCC(n3ccc4cc(-c5ccc(C#N)c(F)c5)c(F)cc43)CC2)nc1 [Example 13, 4-(1-(1-(5-ethylpyrimidin-2-yl)piperidin-4-yl)-6-fluoro-1H-indol-5-yl)-2-fluorobenzonitrile]
13 | < 500 | CCc1cnc(N2CCC(n3ccc4cc(-c5ccc(C#N)cc5)c(F)cc43)CC2)nc1 [Example 14, 4-(1-(1-(5-ethylpyrimidin-2-yl)piperidin-4-yl)-6-fluoro-1H-indol-5-yl)benzonitrile]
14 | < 1000 | CCc1cnc(N2CCC(n3ccc4cc(-c5ccc(NS(C)(=O)=O)cc5)c(F)cc43)CC2)nc1 [Example 15, N-(4-(1-(1-(5-ethylpyrimidin-2-yl)piperidin-4-yl)-6-fluoro-1H-indol-5-yl)phenyl)methanesulfonamide]
15 | < 300 | CC(C)(C)OC(=O)N1CCC(n2ncc3cc(-c4ccc(S(C)(=O)=O)cc4)ccc32)CC1 [Example 16, tert-butyl 4-(5-(4-(methylsulfonyl)phenyl)-1H-indazol-1-yl)piperidine-1-carboxylate]
16 | < 50 | CCc1cnc(N2CCC(n3ncc4cc(-c5ccc(-n6cnnn6)cc5)c(F)cc43)CC2)nc1 [Example 17, 5-(4-(1H-tetrazol-1-yl)phenyl)-1-(1-(5-ethylpyrimidin-2-yl)piperidin-4-yl)-6-fluoro-1H-indazole]
17 | < 200 | CCc1cnc(N2CCC(n3ncc4cc(-c5ccc(S(C)(=O)=O)cc5)c(F)cc43)CC2)nc1 [Example 18, 1-(1-(5-ethylpyrimidin-2-yl)piperidin-4-yl)-6-fluoro-5-(4-(methylsulfonyl)phenyl)-1H-indazole]
18 | < 100 | CC(C)c1noc(N2CCC(n3ccc4cc(-c5ccc(S(C)(=O)=O)cc5)c(F)cc43)CC2)n1 [Example 19, 5-(4-(6-fluoro-5-(4-(methylsulfonyl)phenyl)-1H-indol-1-yl)piperidin-1-yl)-3-isopropyl-1,2,4-oxadiazole]
